Results taken from EP0670321A1, “Oxazopyrroloquinoline deivatives and use thereof” (MITSUBISHI GAS CHEMICAL COMPANY, INC., priority 1994, dated 1995).

target: T1, recombinant human aldose reductase (Homo sapiens, UniProt P15121); assay: Aldose reductase inhibition (decrease with time in absorbance at 340 nm, NADPH / DL-glyceraldehyde); type: biochemical; conditions: 0.1M phosphoric acid buffer, 25°C, absorbance 340 nm, read-out: IC₅₀
T1 construct: made in house; host or cells: Baculovirus-insect cell system
From the text: A large amount of recombinant human aldose reductase was expressed in a Baculovirus-insect cell system by Nishimura et al method (Nishimura et al, J. Biol. Chem. volume 265, pages 9,788-9,792, 1990 and Biochem. Biophys. Acta. volume 1,078, pages 171-178, 1991; and Tanimoto and Nishimura, Experimental Medicine, volume 9, No. 5 (extra issue), pages 165-170, 1991). Purification was made by affinity chromatography, gel filtration and chromatofocusing until electrophoretically uniform aldose reductase was obtained.
To 0.1M phosphoric acid buffer solution (0.8 ml) was added 3mM NADPH (0.05 ml), DL-glyceral-dehyde (0.1 ml) and distilled water (0.04 ml). The mixture was left to stand at 25°C for three minutes. To the mixture was added aldose reductase solution (0.01 ml) in order to start a reaction. Measurement was made of reduction with time in absorbance of 340 nm at 25°C. The amount of enzyme that consumes 1µ mole of […] per minute was taken as a unit.
Enzyme activities were measured after aqueous inhibiting substance solution (0.04 ml each) having various concentrations in place of the distilled water (0.04 ml) under the same conditions as those for aldose reductase. IC₅₀ values that inhibit enzyme activity by 50% were calculated on the basis of enzyme activities measured in the presence or absence of the inhibitors. The inhibitors used include: 8,10-dicarboxy-2-methoxycarbonyl-1H-oxazo[5,4-h] pyrrolo[2,3-f]quinoline (Compound 1, abbreviated OPQ-8,10-DCA-2-ME); 8-carboxy-2,10-dimethoxycarbonyl-1H-oxazo[5,4-h] pyrrolo-[2,3-f]quinoline (Compound 2, abbreviated OPQ-8-CA-2,10-DME); 10-(N-n-amyl)carbamoyl-2,8-dicarboxy-1H-oxazo [5,4-h]pyrrolo[2,3-f]quinoline (Compound 3, abbreviated OPQ-2,8-DCA-10-AA); 10-(N-n-amyl)carbamoyl-8-carboxy-2-methoxy-carbonyl-1H-oxazo[5,4-h]pyrrolo[2,3-f]quinoline (Compound 4, abbreviated OPQ-8-CA-2-ME-10-AA); 2,10-dicarboxy-8-methoxycarbonyl-1H-oxazo[5,4-h] pyrrolo-[2,3-f]quinoline (abbreviated OPQ-2,10-DCA-8-ME); 10-carboxy-2,8-dimethoxycarbonyl-1H-oxazo[5,4-h] pyrrolo-[2,3-f]quinoline (abbreviated OPQ-10-CA-2,8-DME); 2,8,10-trimethoxycarbonyl-1H-oxazo[5,4-h]pyrrolo [2,3-f]-quinoline (abbreviated OPQ-2,8,10-TME); 10-carboxy-2-methoxycarbonyl-1H-oxazo[5,4-h] pyrrolo-[2,3-f]quinoline (abbreviated OPQ-10-CA-2-ME); 8,10-diethoxycarbonyl-2-methoxycarbonyl-1H-oxazo [5,4-hj]yrrolo[2,3-f]quinoline (abbreviated OPQ-2-ME-8,10-DME); 10-(N-n-amyl) carbamoyl-2,8-dimethoxycarbonyl-1H-oxazo[5,4-h]pyrrolo[2,3-f]quinoline (abbreviated OPQ-2,8-DME-10-AA); and 2,8,10-tri[(N-n-amyl)carbamoyl]-1H-oxazo[5,4-h] pyrrolo-[2,3-f]quinoline (abbreviated OPQ-2,8,10-TAA).

Compound | IC50 [nM]
COC(=O)c1cc(C(=O)O)c2c(n1)c1ncoc1c1cc(C(=O)O)[nH]c12 [OPQ-2,10-DCA-8-ME, 2,10-dicarboxy-8-methoxycarbonyl-1H-oxazo[5,4-h] pyrrolo-[2,3-f]quinoline] | 2900
CCCCCNC(=O)c1cc(C(=O)NCCCCC)c2c(n1)c1ncoc1c1cc(C(=O)NCCCCC)[nH]c12 [OPQ-2,8,10-TAA, 2,8,10-tri[(N-n-amyl)carbamoyl]-1H-oxazo[5,4-h] pyrrolo-[2,3-f]quinoline] | 77000
COC(=O)c1cc(C(=O)OC)c2c(n1)c1ncoc1c1cc(C(=O)OC)[nH]c12 [OPQ-2,8,10-TME, 2,8,10-trimethoxycarbonyl-1H-oxazo[5,4-h]pyrrolo [2,3-f]-quinoline] | > 100000
COC(=O)c1cc(C(=O)O)c2c(n1)c1ncoc1c1cc(C(=O)OC)[nH]c12 [OPQ-10-CA-2,8-DME, 10-carboxy-2,8-dimethoxycarbonyl-1H-oxazo[5,4-h] pyrrolo-[2,3-f]quinoline] | 1300
COC(=O)c1cc2c([nH]1)c1c(C(=O)OC)cc(C(=O)O)nc1c1ncoc21 [Compound 2, 8-carboxy-2,10-dimethoxycarbonyl-1H-oxazo[5,4-h] pyrrolo-[2,3-f]quinoline] | 580
COC(=O)c1cc2c([nH]1)c1c(C(=O)O)cc(C(=O)O)nc1c1ncoc21 [Compound 1, 8,10-dicarboxy-2-methoxycarbonyl-1H-oxazo[5,4-h] pyrrolo[2,3-f]quinoline] | 260
CCCCCNC(=O)c1cc(C(=O)O)nc2c3ncoc3c3cc(C(=O)O)[nH]c3c12 [Compound 3, 10-(N-n-amyl)carbamoyl-2,8-dicarboxy-1H-oxazo [5,4-h]pyrrolo[2,3-f]quinoline] | 260
CCCCCNC(=O)c1cc(C(=O)OC)nc2c3ncoc3c3cc(C(=O)OC)[nH]c3c12 [OPQ-2,8-DME-10-AA, 10-(N-n-amyl) carbamoyl-2,8-dimethoxycarbonyl-1H-oxazo[5,4-h]pyrrolo[2,3-f]quinoline] | 93000
CCOC(=O)c1cc(C(=O)OCC)c2c(n1)c1ncoc1c1cc(C(=O)OC)[nH]c12 [OPQ-2ME-8,10-DEE, 8,10-diethoxycarbonyl-2-methoxycarbonyl-1H-oxazo [5,4-hj]yrrolo[2,3-f]quinoline] | > 100000
COC(=O)c1cc2c([nH]1)c1c(C(=O)O)ccnc1c1ncoc21 [OPQ-10-CA-2ME, 10-carboxy-2-methoxycarbonyl-1H-oxazo[5,4-h] pyrrolo-[2,3-f]quinoline] | 1700
CCCCCNC(=O)c1cc(C(=O)O)nc2c3ncoc3c3cc(C(=O)OC)[nH]c3c12 [Compound 4, 10-(N-n-amyl)carbamoyl-8-carboxy-2-methoxy-carbonyl-1H-oxazo[5,4-h]pyrrolo[2,3-f]quinoline] | 190
